Test results reported in ChEMBL document CHEMBL5579898, “Between Theory and Practice: Computational/Experimental Integrated Approaches to Understand the Solubility and Lipophilicity of PROTACs” (J Med Chem, 2024).
In brackets after ≈: the same amount, converted by molar mass. Non-standard residues stand in square brackets, D forms with d. Residues, ends and D or L forms follow the SMILES beside them. *: point of attachment. X1 = Fc1ccc(-c2csc(N3CCOCC3)n2)c(OCCOCCOCCN*)c1F; Dip = N[C@H](C(=O)O)C(c1ccccc1)c1ccccc1; Chg = N[C@H](C(=O)O)C1CCCCC1; NMeA = CN[C@@H](C)C(=O)O

Tests used:
Format in all cases: physicochemical
[1] = Kinetic solubility of the compound incubated for 60 mins under shaking condition by UHPLC-MS analysis; settings: 1 h
[2] = Distribution coefficient, logD of compound in n-Octanol/PBS at pH 7.4 incubated for 30 mins under shaking condition by UHPLC-MS analysis
[3] = Kinetic solubility of the compound in PBS buffer at 50 mM pH 7.4 incubated for 60 mins under shaking condition by UHPLC-MS analysis; settings: read-out: Kinetic_solubility
[4] = Kinetic solubility of the compound incubated for 60 mins under shaking condition by UV-Vis spectroscopic analysis; settings: 1 h
[5] = Kinetic solubility of the compound in universal buffer at pH 7.4 incubated for 60 mins under shaking condition by UHPLC-MS analysis; settings: read-out: Kinetic_solubility
[6] = Distribution coefficient, logD of compound in n-Octanol/PBS at pH 7.4 incubated for 30 mins under shaking condition by UV-Vis spectroscopic analysis; settings: for logD: octanol/water, pH 7.4, 0.5 h, BLD = below limit of detection; for logD at 0.5 h: n-octanol/PBS, pH 7.4
[7] = Dissociation constant, pKa of the compound

| SMILES | log(Kinetic_solubility) [1] | logD at 0.5 h [2] | solubility kinetic at 1 h [3] [µM] | log(Kinetic_solubility) [4] | solubility kinetic at 1 h [5] [µM] | logD [6] | pKa [7] | logD at 0.5 h [6] | log(Kinetic_solubility) ([4]; BLD = below limit of detection) | log(Kinetic_solubility) ([1]; BLD = below limit of detection) |
| --- | --- | --- | --- | --- | --- | --- | --- | --- | --- | --- |
| Cc1ncsc1-c1ccc([C@H](C)NC(=O)[C@@H]2C[C@@H](O)CN2C(=O)[C@@H](NC(=O)CCCCNC(=O)COc2c(-c3csc(N4CCOCC4)n3)ccc(F)c2F)C(C)(C)C)cc1 | -4.72 | 4.98 | 17 (≈ 15 µg/mL) | -4.72 | 12 (≈ 10.6 µg/mL) | Bld | – | – | – | – |
| Cc1sc2c(c1C)C(c1ccc(Cl)cc1)=N[C@@H](CC(=O)NCCCN1CCN(CCCNc3cccc4c3C(=O)N(C3CCC(=O)NC3=O)C4=O)CC1)c1nnc(C)n1-2 (some centres not stated) | -5.15 | 3.82 | – | -4.15 | 71 (≈ 59.6 µg/mL) | – | 4.49 | 3.3 | – | – |
| Cc1sc2c(c1C)C(c1ccc(Cl)cc1)=N[C@@H](CC(=O)NCCCCCCCCNc1cccc3c1C(=O)N(C1CCC(=O)NC1=O)C3=O)c1nnc(C)n1-2 (some centres not stated) | -7.33 | 5.5 | – | – | 0.05 (≈ 0.0392 µg/mL) | Bld | 7.98 | – | Bld | – |
| COc1ccc2c(c1)c(CC(=O)NCCN1CCN(C(=O)CCC(=O)N[C@H](C(=O)N3C[C@H](O)C[C@H]3C(=O)N[C@@H](C)c3ccc(-c4scnc4C)cc3)C(C)(C)C)CC1)c(C)n2C(=O)c1ccc(Cl)cc1 | -5.7 | 4.8 | – | -5.22 | – | Bld | – | – | – | – |
| Cc1ncsc1-c1ccc([C@H](C)NC(=O)[C@@H]2C[C@@H](O)CN2C(=O)[C@@H](NC(=O)CNCCOCCOc2c(-c3csc(N4CCOCC4)n3)ccc(F)c2F)C(C)(C)C)cc1 | -5.22 | 5.2 | – | -4.82 | – | Bld | – | – | – | – |
| COc1cc(C(=O)NCCCCCCNC(=O)COc2c(-c3csc(N4CCOCC4)n3)ccc(F)c2F)ccc1NC(=O)[C@@H]1N[C@@H](CC(C)(C)C)[C@](C#N)(c2ccc(Cl)cc2F)[C@H]1c1cccc(Cl)c1F | – | 4 | – | – | – | – | – | 3.7 | Bld | Bld |
| CCOC(=O)c1c(C)n(Cc2ccccc2)c2ccc(OCCCCCCCCCCC(=O)N[C@H](C(=O)N3C[C@H](O)C[C@H]3C(=O)N[C@@H](C)c3ccc(-c4scnc4C)cc3)C(C)(C)C)cc12 | – | 5.2 | – | – | – | Bld | – | – | Bld | Bld |
| COc1ccc2c(c1)c(CC(=O)NCCCCC(=O)N[C@H](C(=O)N1C[C@H](O)C[C@H]1C(=O)N[C@@H](C)c1ccc(-c3scnc3C)cc1)C(C)(C)C)c(C)n2C(=O)c1ccc(Cl)cc1 | -6.1 | 5.47 | – | – | – | Bld | – | – | Bld | – |
| CCOC(=O)c1c(C)n(Cc2ccccc2)c2ccc(OCC(=O)NCCCC(=O)N[C@H](C(=O)N3C[C@H](O)C[C@H]3C(=O)N[C@@H](C)c3ccc(-c4scnc4C)cc3)C(C)(C)C)cc12 | -6.23 | 5.1 | – | – | – | Bld | – | – | Bld | – |
| O=C1CCC(N2C(=O)c3cccc(NCCOCCOCC(=O)N4CCN(C(=O)c5cc(Cc6n[nH]c(=O)c7ccccc67)ccc5F)CC4)c3C2=O)C(=O)N1 (configuration not stated) | -4.19 | 1.27 | – | -4.16 | – | – | – | 0.867 | – | – |
| Cc1ncsc1-c1ccc([C@H](C)NC(=O)[C@@H]2C[C@@H](O)CN2C(=O)[C@@H](NC(=O)CCCCn2cc(COc3c(-c4csc(N5CCOCC5)n4)ccc(F)c3F)nn2)C(C)(C)C)cc1 | -5.14 | 4.99 | – | -5 | – | Bld | – | – | – | – |
| CN[C@@H](C)C(=O)N[C@H](C(=O)N1CCC[C@H]1C(=O)N[C@H](C(=O)NCCOCCOCCOc1c(-c2csc(N3CCOCC3)n2)ccc(F)c1F)C(c1ccccc1)c1ccccc1)C1CCCCC1 (H-[NMeA][Chg]P[Dip]-X1) | -4.55 | 5.1 | – | -4.49 | – | Bld | – | – | – | – |
| Cc1ccc(-c2csc(N3CCOCC3)n2)c(OCC(=O)NCCCCC(=O)N[C@H](C(=O)N2C[C@H](O)C[C@H]2C(=O)N[C@@H](C)c2ccc(-c3scnc3C)cc2)C(C)(C)C)c1C | -5.05 | 5.02 | – | -4.89 | – | Bld | – | – | – | – |
| O=C1CCC(N2C(=O)c3cccc(NCCOCCOCCOCCn4cc(COc5ccc(N(C(=O)CCl)C(C(=O)NCCc6ccccc6)c6cccs6)cc5Cl)nn4)c3C2=O)C(=O)N1 (configuration not stated) | -6.77 | 4.27 | – | – | – | – | – | 3.92 | Bld | – |
